In US7523563B2, “Process for preparing certain hydrohalide metal complex compounds having a specific coarse structure” (Verla-Pharm Arzneimittelfabrik Apotheker H.J.v. Ehrlich …, priority 2005, dated 2009):
“And” between values parts separate entries of the source, which are not always exact repeats. Identical values can stand only once.

Tests used:
[1] = Particle size distribution of the final product of Example 1; type: physicochemical
[2] = Apparent volume of the final product; type: physicochemical
Experimental: A product with a very favourable apparent volume can be achieved in the process according to the invention for preparing the granular hydrohalide of the complex compound of relevance here. The apparent volume [volume of the uncompressed product (ml)/100 g of the product] is preferably in a range from 150 to 180 ml/100 g, with a particularly preferred apparent volume being about 170 ml/100 g.

[3] = Dissolving properties, time until dissolution complete in water; type: physicochemical; details: 10 g in 250 ml of water, stirring 20 revolutions per min; hydrochloride
Experimental: The dissolving properties of granular magnesium L-aspartate hydrochloride prepared by the process according to the invention were compared with a finely powdered magnesium L-aspartate hydrochloride prepared by a standard process (disclosed in DE 32 38 118 A1). The test arrangement consisted of a glass beaker with stirring bar which was adjusted to 20 revolutions per min. 250 ml of water were introduced and then 10 g of test material were added with the stirrer motor running. The time until dissolution was complete was measured.

[4] = Water uptake capacity or hygroscopicity, desiccator at 75% relative humidity; type: physicochemical; details: for percentage increase in weight: hydrochloride
Text: The hygroscopicity of granular magnesium L-aspartate hydrochloride prepared by the process according to the invention was compared with a finely powdered magnesium L-aspartate hydrochloride prepared by a standard process (disclosed in DE 32 38 118 A1). The test arrangement consisted of a desiccator which was adjusted to a relative humidity of 75% with a saturated sodium chloride solution. In each case a defined amount of sample was weighed out and the sample dish was placed in the desiccator. The percentage increase in weight of the weighed amount was determined after 2, 4, 5 and 20 hours.

[5] = Particle size distribution, comparative sieve analysis (Hosokawa Alpine air jet sieve); type: physicochemical
Text: The particle size distribution of granular magnesium L-aspartate hydrochloride prepared by the process according to the invention was compared with a finely powdered magnesium L-aspartate hydrochloride prepared by a standard process (disclosed in DE 32 38 118 A1).

[6] = Flow time and flowability, conical flow funnel, 2.9.16 Method Ph. Eur.; type: physicochemical; details: 100 g, time for whole sample to flow out of the funnel, two samples each; hydrochloride
Experimental: The flowability of granular magnesium L-aspartate hydrochloride prepared by the process according to the invention was compared with a finely powdered magnesium L-aspartate hydrochloride prepared by a standard process (disclosed in DE 32 38 118 A1). The test arrangement consisted of a conical flow funnel with a height of 22.5 cm, an upper internal diameter of 7.3 cm and a lower internal diameter of 8.2 mm. The test was carried out by the 2.9.16 Method, Ph. Eur., 4th edition, main volume 2002, as follows. 100 g portions of material were put into the funnel. Opening of the funnel orifice was followed by assessment of the flowability, and the time for the whole sample to flow out of the funnel was determined. Two samples were measured in each case.

[7] = background statement; cited from earlier work
[8] = listed as finely powdered magnesium L-aspartate hydrochloride, hydrochloride
[9] = sieve 63.0 μm, listed as standard process, hydrochloride
[10] = sieve 90.0 μm, listed as standard process, hydrochloride
[11] = sieve 150.0 μm, listed as standard process, hydrochloride
[12] = listed as granular magnesium L-aspartate hydrochloride, hydrochloride
[13] = sieve 63.0 μm, listed as process according to the present invention, hydrochloride
[14] = sieve 90.0 μm, listed as process according to the present invention, hydrochloride
[15] = sieve 150.0 μm, listed as process according to the present invention, hydrochloride

In the case of `Cl.N[C@@H](CC(=O)[O-])C(=O)[O-].[Mg+2]` [Example 1, magnesium L-aspartate hydrochloride], the “particle size distribution, fraction of particles” value ([1]; 100-140 μm) is reported as 19.48%, the “particle size distribution, fraction of particles” value ([1]; 140-250 μm) is reported as 57.84% and the “particle size distribution, fraction of particles” value ([1]; 250-315 μm) is reported as 10.81%. The “particle size distribution, fraction of particles” value ([1]; 315-400 μm) was 4.78%, the “particle size distribution, fraction of particles” value ([1]; 400-500 μm) was 0.90% and the “particle size distribution, fraction of particles” value ([1]; <100 μm) was 6.19%. For the same compound, the “apparent volume [volume of the uncompressed product (ml)/100 g of the product]” value [2] was 170 ml/100 g.
With `Cl.N[C@@H](CC(=O)[O-])C(=O)[O-].[Mg+2]` [Standard, magnesium L-aspartate hydrochloride, reference compound] the Dissolving time [3] was 7 min, the “percentage increase in weight” value ([4]; testing time 2 h) was 0.35% and 0.30% and the “percentage increase in weight” value ([4]; testing time 4 h) was 0.63% and 0.55%. The “percentage increase in weight” value ([4]; testing time 5 h) was 0.72% and 0.71%, the “percentage increase in weight” value ([4]; testing time 20 h) was 3.06% and 2.70% and the “average particle size (d50)” value [5, 8] was 54.9 μm. The “maximum particle size (dmax)” value [5, 8] was 260.0 μm, the “minimum particle size (dmin)” value [5, 8] was 0.7 μm and the “1 − Q” value ([5]; sieve 0 μm (receiver)) was 100.0 %-R. The Q ([5]; sieve 0 μm (receiver)) was 0.0 %-D, the q ([5]; sieve 0 μm (receiver), listed as standard process, hydrochloride) was 55.4 %-B and the “1 − Q” value [5, 9] was 44.6 %-R. The Q [5, 9] was 55.4 %-D, the q [5, 9] was 23.8 %-B and the “1 − Q” value [5, 10] was 20.8 %-R. The Q [5, 10] was 79.2 %-D, the q [5, 10] was 15.6 %-B and the “1 − Q” value [5, 11] was 5.2 %-R. For the same compound, the Q [5, 11] was 94.8 %-D and the q [5, 11] was 5.2 %-B.
In the case of `Cl.N[C@@H](CC(=O)[O-])C(=O)[O-].[Mg+2]` [According to the invention, magnesium L-aspartate hydrochloride], the Dissolving time [3] is reported as 3 min and 2 min, the Flow time [6] is reported as 10 s and the “hygroscopicity compared with a finely powdered product according to the prior art” value ([4]; 2 to 20 hours) is reported as “distinctly reduced”. For the same compound, the “percentage increase in weight” value ([4]; testing time 2 h) was 0.18% and 0.16%, the “percentage increase in weight” value ([4]; testing time 4 h) was 0.33% and 0.30% and the “percentage increase in weight” value ([4]; testing time 5 h) was 0.43% and 0.40%. The “percentage increase in weight” value ([4]; testing time 20 h) was 1.74% and 1.63%, the “average particle size (d50)” value [5, 12] was 250.8 μm and the “maximum particle size (dmax)” value [5, 12] was 448.7 μm. For the same compound, the “minimum particle size (dmin)” value [5, 12] was 48.0 μm, the “1 − Q” value ([5]; sieve 0 μm (receiver)) was 100.0 %-R and the Q ([5]; sieve 0 μm (receiver)) was 0.0 %-D. The q ([5]; sieve 0 μm (receiver), listed as process according to the present invention, hydrochloride) was 0.2 %-B, the “1 − Q” value [5, 13] was 99.8 %-R and the Q [5, 13] was 0.2 %-D. The q [5, 13] was 0.6 %-B, the “1 − Q” value [5, 14] was 99.2 %-R and the Q [5, 14] was 0.8 %-D. The q [5, 14] was 10.2 %-B, the “1 − Q” value [5, 15] was 89.0 %-R and the Q [5, 15] was 11.0 %-D. For the same compound, the q [5, 15] was 61.4 %-B, the “1 − Q” value ([5]; sieve 212.0 μm) was 27.6 %-R and the Q ([5]; sieve 212.0 μm) was 72.4 %-D. The q ([5]; sieve 212.0 μm) was 18.4 %-B, the “1 − Q” value ([5]; sieve 315.0 μm) was 9.2 %-R and the Q ([5]; sieve 315.0 μm) was 90.8 %-D. The q ([5]; sieve 315.0 μm) was 5.4 %-B, the “1 − Q” value ([5]; sieve 400.0 μm) was 3.8 %-R and the Q ([5]; sieve 400.0 μm) was 96.2 %-D. The q ([5]; sieve 400.0 μm) was 3.0 %-B, the “1 − Q” value ([5]; sieve 500.0 μm) was 0.8 %-R and the Q ([5]; sieve 500.0 μm) was 99.2 %-D. It also gave a q ([5]; sieve 500.0 μm) of 0.8 %-B.
For `Cl.N[C@@H](CC(=O)[O-])C(=O)[O-].[Mg+2]` [Magnesium L-aspartate hydrochloride], the “humidity at which the substance liquefies” value [7] is listed as “more than 50%”.
